Source: US20210246122A1, “Triazine Compounds and Uses Thereof” (Aduro Biotech, Inc., priority 2018, published 2021)

Target: T1, Human cGAS amino acids 155-522 (Homo sapiens, UniProt Q8N884)
T1 construct: hexahistidine tag (N, cleaved yes); made in house; host or cells: E. coli BL21 DE3 Rosetta 2
Assay: cGAS activity assay (DNA-activated cGAS, remaining ATP measured by Kinase-Glo Max luciferase assay)
Assay type: biochemical
Settings: 300 nM purified cGAS, 1 μM dsDNA, 250 μM ATP, 100 μM GTP, 37° C. for 1.25 hours
Procedure: IC50 values were determined as follows:
Human cGAS sequence encoding amino acids 155-522 was cloned into a pET (EMD Millipore) based expression plasmid. The resulting construct contained a tandem N-terminal hexahistidine tag, maltose binding protein fusion followed by a tobacco etch virus protease cleavable linker preceding cGAS amino acids 155-522.
Construct sequence: Amino acids 155-522, Human cGAS
Protein was expressed and purified from E. coli BL21 DE3 Rosetta 2 (EMD Millipore) cells using standard techniques. Cells were grown in 2× yeast extract tryptone medium and expression was initiated via the addition of isopropyl β-D-1-thiogalactopyranoside. Expression proceeded overnight at 18° C. Cells were harvested by centrifugation and subsequently lysed via sonication. Insoluble fraction was removed by centrifugation. Maltose binding protein (MBP) fusion proteins were purified on a dextrin sepharose column (GE Healthcare) and the MBP tag was removed using tobacco etch virus protease overnight during dialysis. Protein was further purified on a heparin column (GE Healthcare) and eluted using a NaCl gradient. Column fraction were pooled and further purified on a Superdex 75 gel filtration column (GE Healthcare). Protein was quantified using 280 nm absorbance. Protein was then flash frozen in liquid nitrogen and stored at −80° C. until use.
Potential antagonists were diluted in 100% dimethyl sulfoxide and added to the reaction. Final dimethyl sulfoxide concentration was 5%. The compounds were tested from 1 μM with either 3- or 4-fold serial dilutions down to 0.000051 or 0.000004 μM respectively.
Two complementary DNA oligos (IDT DNA) were annealed by slow cooling from 95° C. The resulting double stranded DNA was used to activate cGAS.
Reactions were performed at 37° C. for 1.25 hours. Reaction buffer: 20 mM Tris HCl pH 9, 100 mM NaCl, 5 mM MgCl2, 0.1 mg/ml bovine gamma globulin, 250 μM adenosine triphosphate, 100 μM guanosine triphosphate, 0.5 mM Tris(2-carboxyethyl)phosphine hydrochloride, 1 μM double stranded DNA and 300 nM purified cGAS protein.
Reactions were stopped and ATP levels in the reaction were measured using a luciferase based assay. Promega Kinase-Glo Max Assay. Luminescence was measured on a plate reader (Molecular Devices). Values were normalized to control wells lacking compound.

T1 sequence (Q8N884 157-522): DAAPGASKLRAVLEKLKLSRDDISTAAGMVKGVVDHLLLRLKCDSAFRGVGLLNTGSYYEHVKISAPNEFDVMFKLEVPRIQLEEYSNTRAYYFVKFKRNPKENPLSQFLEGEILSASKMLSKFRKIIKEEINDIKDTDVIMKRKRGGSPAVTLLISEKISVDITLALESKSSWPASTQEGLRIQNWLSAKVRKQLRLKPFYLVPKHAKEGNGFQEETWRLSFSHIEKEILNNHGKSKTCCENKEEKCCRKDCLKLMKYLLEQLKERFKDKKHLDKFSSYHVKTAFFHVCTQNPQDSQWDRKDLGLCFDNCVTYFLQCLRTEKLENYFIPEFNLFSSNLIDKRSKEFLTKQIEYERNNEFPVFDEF

Row | SMILES | IC50 [µM]
1 | COC(=O)[C@H](Cc1ccc(C#N)cc1)Nc1nc(Cl)nc(Nc2cccc(CN3CCN(C(=O)OC(C)(C)C)CC3)c2)n1 [TA1002, tert-butyl (S)-4-(3-((4-chloro-6-((3-(4-cyanophenyl)-1-methoxy-1-oxopropan-2-yl)amino)-1,3,5-triazin-2-yl)amino)benzyl)piperazine-1-carboxylate] | > 250
2 | COC(=O)[C@H](Cc1ccc(C#N)cc1)Nc1nc(NCc2nc3cc(F)ccc3[nH]2)nc(Nc2cccc(CN3CCN(C(=O)OC(C)(C)C)CC3)c2)n1 [TA1003, tert-butyl (S)-4-(3-((4-((3-(4-cyanophenyl)-1-methoxy-1-oxopropan-2-yl)amino)-6-(((5-fluoro-1H-benzo[d]imidazol-2-yl)methyl)amino)-1,3,5-triazin-2-yl)amino)benzyl)piperazine-1-carboxylate] | > 250
3 | CN(C)C(=O)[C@H](Cc1ccc(C#N)cc1)Nc1nc(Cl)nc(Nc2cccc(CN3CCN(C(=O)OC(C)(C)C)CC3)c2)n1 [TA1008, tert-butyl (S)-4-(3-((4-chloro-6-((3-(4-cyanophenyl)-1-(dimethylamino)-1-oxopropan-2-yl)amino)-1,3,5-triazin-2-yl)amino)benzyl)piperazine-1-carboxylate] | > 250
4 | CN(C)C(=O)[C@H](Cc1ccc(C#N)cc1)Nc1nc(Cl)nc(Nc2cccc(CN3CCNCC3)c2)n1 [TA1009, (S)-2-((4-chloro-6-((3-(piperazin-1-ylmethyl)phenyl)amino)-1,3,5-triazin-2-yl)amino)-3-(4-cyanophenyl)-N,N-dimethylpropanamide] | > 250
5 | CN(C)C(=O)[C@H](Cc1ccc(C#N)cc1)Nc1ncnc(Nc2cccc(CN3CCN(C(=O)OC(C)(C)C)CC3)c2)n1 [TA1010, tert-butyl (S)-4-(3-((4-((3-(4-cyanophenyl)-1-(dimethylamino)-1-oxopropan-2-yl)amino)-1,3,5-triazin-2-yl)amino)benzyl)piperazine-1-carboxylate] | > 250
6 | CN(C)C(=O)[C@H](Cc1ccc(C#N)cc1)Nc1ncnc(Nc2cccc(CN3CCNCC3)c2)n1 [TA1011, (S)-3-(4-cyanophenyl)-N,N-dimethyl-2-((4-((3-(piperazin-1-ylmethyl)phenyl)amino)-1,3,5-triazin-2-yl)amino)propanamide] | > 250
7 | CN(C)C(=O)[C@H](Cc1ccc(C#N)cc1)Nc1nc(NCc2nc3cc(F)ccc3[nH]2)nc(Nc2cccc(CN3CCNCC3)c2)n1 [TA1013, (S)-3-(4-cyanophenyl)-2-((4-(((5-fluoro-1H-benzo[d]imidazol-2-yl)methyl)amino)-6-((3-(piperazin-1-ylmethyl)phenyl)amino)-1,3,5-triazin-2-yl)amino)-N,N-dimethylpropanamide] | > 250
8 | Cc1cc2nc(CN(C)c3nc(Nc4cccc(CN5CCNCC5)c4)nc(N[C@@H](Cc4ccc(C#N)cc4)C(=O)N(C)C)n3)[nH]c2cc1C [TA1014, (S)-3-(4-cyanophenyl)-2-((4-(((5,6-dimethyl-1H-benzo[d]imidazol-2-yl)methyl)(methyl)amino)-6-((3-(piperazin-1-ylmethyl)phenyl)amino)-1,3,5-triazin-2-yl)amino)-N,N-dimethylpropanamide] | > 250
9 | Cc1cc2nc(CN(C)c3nc(Nc4cccc(CN5CCN(C(=O)c6cc7[nH]cnc7cc6C)CC5)c4)nc(N[C@@H](Cc4ccc(C#N)cc4)C(=O)N(C)C)n3)[nH]c2cc1C [TA1015, (S)-3-(4-cyanophenyl)-2-((4-(((5,6-dimethyl-1H-benzo[d]imidazol-2-yl)methyl)(methyl)amino)-6-((3-((4-(5-methyl-1H-benzo[d]imidazole-6-carbonyl)piperazin-1-yl)methyl)phenyl)amino)-1,3,5-triazin-2-yl)amino)-N,N-dimethylpropanamide] | > 250
10 | CN(C)C(=O)[C@H](Cc1ccc(C#N)cc1)Nc1nc(NCc2nc3cc(F)ccc3[nH]2)nc(Nc2cccc(CN3CCN(C=O)CC3)c2)n1 [TA1016, (S)-3-(4-cyanophenyl)-2-((4-(((5-fluoro-1H-benzo[d]imidazol-2-yl)methyl)amino)-6-((3-((4-formylpiperazin-1-yl)methyl)phenyl)amino)-1,3,5-triazin-2-yl)amino)-N,N-dimethylpropanamide] | 20 to 250
11 | COCCNC(=O)[C@H](Cc1ccc(C#N)cc1)Nc1nc(NCc2nc3cc(F)ccc3[nH]2)nc(Nc2cccc(CN3CCNCC3)c2)n1 [TA1017, (S)-3-(4-cyanophenyl)-2-((4-(((5-fluoro-1H-benzo[d]imidazol-2-yl)methyl)amino)-6-((3-(piperazin-1-ylmethyl)phenyl)amino)-1,3,5-triazin-2-yl)amino)-N-(2-methoxyethyl)propanamide] | > 250
12 | COC(=O)[C@@H](Cc1ccc(C#N)cc1)Nc1nc(NCc2nc3cc(F)ccc3[nH]2)nc(Nc2cccc(CN3CCNCC3)c2)n1 [TA1019, methyl (R)-3-(4-cyanophenyl)-2-((4-(((5-fluoro-1H-benzo[d]imidazol-2-yl)methyl)amino)-6-((3-(piperazin-1-ylmethyl)phenyl)amino)-1,3,5-triazin-2-yl)amino)propanoate] | > 250
13 | CNC(=O)[C@H](Cc1ccc(C#N)cc1)Nc1nc(NCc2nc3cc(F)ccc3[nH]2)nc(Nc2cccc(CN3CCNCC3)c2)n1 [TA1022, (S)-3-(4-cyanophenyl)-2-((4-(((5-fluoro-1H-benzo[d]imidazol-2-yl)methyl)amino)-6-((3-(piperazin-1-ylmethyl)phenyl)amino)-1,3,5-triazin-2-yl)amino)-N-methylpropanamide] | > 250
14 | COCCOCCNC(=O)[C@H](Cc1ccc(C#N)cc1)Nc1nc(NCc2nc3cc(F)ccc3[nH]2)nc(Nc2cccc(CN3CCNCC3)c2)n1 [TA1023, (S)-3-(4-cyanophenyl)-2-((4-(((5-fluoro-1H-benzo[d]imidazol-2-yl)methyl)amino)-6-((3-(piperazin-1-ylmethyl)phenyl)amino)-1,3,5-triazin-2-yl)amino)-N-(2-(2-methoxyethoxy)ethyl)propanamide] | > 250
15 | COC(=O)[C@H](Cc1ccc(C#N)cc1)Nc1ncnc(Nc2cccc(CN3CCN(C(=O)c4nccnc4O)CC3)c2)n1 [TA1026, methyl (S)-3-(4-cyanophenyl)-2-((4-((3-((4-(3-hydroxypyrazine-2-carbonyl)piperazin-1-yl)methyl)phenyl)amino)-1,3,5-triazin-2-yl)amino)propanoate] | > 250
16 | COC(=O)[C@H](Cc1ccc(C#N)cc1)Nc1nc(Nc2cccc(CN3CCNCC3)c2)nc(OC)n1 [TA1028, methyl (S)-3-(4-cyanophenyl)-2-((4-methoxy-6-((3-(piperazin-1-ylmethyl)phenyl)amino)-1,3,5-triazin-2-yl)amino)propanoate] | > 250
17 | COCCOCCNC(=O)[C@H](Cc1ccc(C#N)cc1)Nc1nc(NCc2nc3cc(F)ccc3[nH]2)nc(Nc2cccc(CN3CCN(C(=O)c4nccnc4OC)CC3)c2)n1 [TA1029, (S)-3-(4-cyanophenyl)-2-((4-(((5-fluoro-1H-benzo[d]imidazol-2-yl)methyl)amino)-6-((3-((4-(3-methoxypyrazine-2-carbonyl)piperazin-1-yl)methyl)phenyl)amino)-1,3,5-triazin-2-yl)amino)-N-(2-(2-methoxyethoxy)ethyl)propanamide] | > 250
18 | CNC(=O)[C@H](Cc1ccc(C#N)cc1)Nc1nc(NCc2nc3cc(F)ccc3[nH]2)nc(Nc2cccc(CN3CCN(C=O)CC3)c2)n1 [TA1030, (S)-3-(4-cyanophenyl)-2-((4-(((5-fluoro-1H-benzo[d]imidazol-2-yl)methyl)amino)-6-((3-((4-formylpiperazin-1-yl)methyl)phenyl)amino)-1,3,5-triazin-2-yl)amino)-N-methylpropanamide] | > 250
19 | COCCNc1nc(Nc2cccc(CN3CCNCC3)c2)nc(N[C@@H](Cc2ccc(C#N)cc2)C(=O)OC)n1 [TA1031, methyl (S)-3-(4-cyanophenyl)-2-((4-((2-methoxyethyl)amino)-6-((3-(piperazin-1-ylmethyl)phenyl)amino)-1,3,5-triazin-2-yl)amino)propanoate] | > 250
20 | COC(=O)[C@H](Cc1ccc(C#N)cc1)Nc1nc(NCc2nccn2C)nc(Nc2cccc(CN3CCNCC3)c2)n1 [TA1032, methyl (S)-3-(4-cyanophenyl)-2-((4-(((1-methyl-1H-imidazol-2-yl)methyl)amino)-6-((3-(piperazin-1-ylmethyl)phenyl)amino)-1,3,5-triazin-2-yl)amino)propanoate] | > 250
21 | COCCNc1nc(Nc2cccc(CN3CCN(C(=O)c4nccnc4O)CC3)c2)nc(N[C@@H](Cc2ccc(C#N)cc2)C(=O)OC)n1 [TA1033, methyl (S)-3-(4-cyanophenyl)-2-((4-((3-((4-(3-hydroxypyrazine-2-carbonyl)piperazin-1-yl)methyl)phenyl)amino)-6-((2-methoxyethyl)amino)-1,3,5-triazin-2-yl)amino)propanoate] | > 250
